Entries after “also recorded” stand apart in the source; their conditions may differ.
Experiments:
GDP-bound NRAS WT = molecular target: T1, GDP-bound NRAS WT (Homo sapiens, UniProt P01111); assay: SOS1-mediated guanine nucleotide exchange assay (TR-FRET); format: biochemical
T1 construct: His-tagged NRAS WT (aa 1–172); made in house; host or cells: Escherichia coli

[1] = test system: p-ERK1/2 (Thr202/Tyr204) in NCI-H1373 cells (KRAS p.G12C); assay: cells; format: cell-based; settings: Homo sapiens, NCI-H1373, 2 h, read-out: p-ERK IC50 (nM)
Procedure: (§1) For phospho-ERK (p-ERK) assays, cells were seeded in 96-well plates with appropriate density (refer to Supplementary Table S3) and incubated overnight, followed by treatment with a series of concentrations of compounds in the assay medium (containing 0.1% FBS) for 2 hours. […] Then, p-AKT1/2/3 (Ser473) was detected using the p-AKT1/2/3 (Ser473) cellular kit (Cisbio/Revvity) according to the manufacturer’s instructions. […] The IC50 values were calculated using GraphPad Prism (RRID: SCR_002798) by fitting a four-parameter dose–response curve.

[2] = test system: p-ERK1/2 (Thr202/Tyr204) in SW1573 cells (KRAS p.G12C); assay: cells; format: cell-based; settings: Homo sapiens, SW1573, 2 h, read-out: p-ERK IC50 (nM)
Procedure: as §1

Adrenergic α1A = Adrenergic α1A (Homo sapiens, UniProt P35348); assay: 41-target safety off-target activity panel
Adrenergic β2 = Adrenergic β2 (Homo sapiens, UniProt P07550); assay: 41-target safety off-target activity panel
Cannabinoid CB2 = Cannabinoid CB2 (Homo sapiens, UniProt P34972); assay: 41-target safety off-target activity panel
Cholecystokinin CCK1 = Cholecystokinin CCK1 (Homo sapiens, UniProt P32238); assay: 41-target safety off-target activity panel
Dopamine D1 = Dopamine D1 (Homo sapiens, UniProt P21728); assay: 41-target safety off-target activity panel
Endothelin ETA = Endothelin ETA (Homo sapiens, UniProt P25101); assay: 41-target safety off-target activity panel
hERG potassium channel = hERG potassium channel (Homo sapiens, UniProt Q12809); assay: 41-target safety off-target activity panel
[3] = molecular target: Serotonin Transporter SET (Homo sapiens, UniProt P31645); assay: 41-target safety off-target activity panel
Cyclooxygenase COX2 = Cyclooxygenase COX2 (Homo sapiens, UniProt P35354); assay: 41-target safety off-target activity panel
Phosphodiesterase PDE3A = Phosphodiesterase PDE3A (Homo sapiens, UniProt Q14432); assay: 41-target safety off-target activity panel
Phosphodiesterase PDE4D2 = Phosphodiesterase PDE4D2 (Homo sapiens, UniProt Q08499); assay: 41-target safety off-target activity panel
Monoamine oxidase MAO-A = Monoamine oxidase MAO-A (Homo sapiens, UniProt P21397); assay: 41-target safety off-target activity panel
[4] = test system: S. typhimurium TA97a, TA98, TA100, TA102 and TA1535; assay: In vitro Ames; format: cell-based; settings: 50, 150, 500, 1500 and 5000 μg/plate, presence or absence of S9 mix; GLP
Procedure: Study Species/Strain Gender/No. per Noteworthy Findings GLP Compliance
strains of S. typhimurium: 150, 500, 1500 and 5000 μg/plate in the presence or absence of S9 mix.
and TA1535 The result of this Ames test was concluded to be negative. […]

bone marrow = assay: Rat bone marrow micronucleus assay; format: in vivo, Sprague Dawley Rat; settings: 200, 600 and 2000 mg/kg oral gavage once daily for 3 days; GLP
Procedure: No damage on chromosomal integrity or abnormal chromosome
Rat bone marrow Sprague Dawley Rat 5/gender/group segregation in the bone marrow was noted after SD rats were administered Yes
3 consecutive days. The result of this micronucleus assay was negative. […]

skin = assay: Phototoxicity Study; format: in vivo, England Guinea Pig; settings: single dose 300 and 1000 mg/kg oral gavage followed by UV irradiation; GLP
Calcium channel Cav1.2 = Calcium channel Cav1.2 (Homo sapiens, UniProt Q13936); assay: in vitro
[5] = test system: all other kinases of the 330-kinase panel; assay: 330-kinase panel; settings: glecirasib 10 μmol/L, Km concentration of ATP

Sequence of Endothelin ETA (P25101 21-427): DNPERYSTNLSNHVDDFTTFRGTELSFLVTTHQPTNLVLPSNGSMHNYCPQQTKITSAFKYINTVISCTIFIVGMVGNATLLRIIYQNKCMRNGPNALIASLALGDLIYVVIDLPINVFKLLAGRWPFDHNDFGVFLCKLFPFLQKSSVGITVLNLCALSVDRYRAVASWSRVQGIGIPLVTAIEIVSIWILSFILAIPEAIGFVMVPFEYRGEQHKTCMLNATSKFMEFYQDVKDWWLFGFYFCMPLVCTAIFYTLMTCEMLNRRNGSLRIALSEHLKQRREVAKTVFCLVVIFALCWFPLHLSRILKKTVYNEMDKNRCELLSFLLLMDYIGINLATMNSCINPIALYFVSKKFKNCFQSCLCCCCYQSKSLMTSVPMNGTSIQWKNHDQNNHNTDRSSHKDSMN
Sequence of Adrenergic α1A (P35348 whole entry): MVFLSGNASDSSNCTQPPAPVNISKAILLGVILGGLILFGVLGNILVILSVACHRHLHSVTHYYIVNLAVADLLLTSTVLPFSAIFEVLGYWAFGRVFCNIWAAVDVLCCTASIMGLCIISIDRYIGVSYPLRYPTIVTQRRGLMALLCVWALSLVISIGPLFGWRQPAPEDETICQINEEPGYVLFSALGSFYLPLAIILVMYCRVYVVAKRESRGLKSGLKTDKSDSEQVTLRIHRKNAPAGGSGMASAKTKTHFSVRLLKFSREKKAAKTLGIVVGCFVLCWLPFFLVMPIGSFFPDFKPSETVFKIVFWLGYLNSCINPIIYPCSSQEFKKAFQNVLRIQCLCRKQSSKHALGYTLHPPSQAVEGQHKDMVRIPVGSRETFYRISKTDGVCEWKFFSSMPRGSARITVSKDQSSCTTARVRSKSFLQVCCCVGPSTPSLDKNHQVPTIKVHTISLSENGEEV
Sequence of Cholecystokinin CCK1 (P32238 whole entry): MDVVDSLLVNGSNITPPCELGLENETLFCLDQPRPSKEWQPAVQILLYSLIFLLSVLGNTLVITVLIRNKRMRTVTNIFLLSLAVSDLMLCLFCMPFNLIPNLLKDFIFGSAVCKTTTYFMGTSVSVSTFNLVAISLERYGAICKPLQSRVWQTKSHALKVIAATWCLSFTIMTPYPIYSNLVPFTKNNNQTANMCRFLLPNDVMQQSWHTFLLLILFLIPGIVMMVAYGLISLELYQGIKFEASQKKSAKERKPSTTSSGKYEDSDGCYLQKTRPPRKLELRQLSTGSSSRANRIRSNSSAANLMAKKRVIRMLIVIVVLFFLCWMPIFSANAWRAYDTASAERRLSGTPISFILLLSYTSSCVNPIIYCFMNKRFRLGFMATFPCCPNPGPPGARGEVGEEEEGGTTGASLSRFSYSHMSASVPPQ
Sequence of Adrenergic β2 (P07550 whole entry): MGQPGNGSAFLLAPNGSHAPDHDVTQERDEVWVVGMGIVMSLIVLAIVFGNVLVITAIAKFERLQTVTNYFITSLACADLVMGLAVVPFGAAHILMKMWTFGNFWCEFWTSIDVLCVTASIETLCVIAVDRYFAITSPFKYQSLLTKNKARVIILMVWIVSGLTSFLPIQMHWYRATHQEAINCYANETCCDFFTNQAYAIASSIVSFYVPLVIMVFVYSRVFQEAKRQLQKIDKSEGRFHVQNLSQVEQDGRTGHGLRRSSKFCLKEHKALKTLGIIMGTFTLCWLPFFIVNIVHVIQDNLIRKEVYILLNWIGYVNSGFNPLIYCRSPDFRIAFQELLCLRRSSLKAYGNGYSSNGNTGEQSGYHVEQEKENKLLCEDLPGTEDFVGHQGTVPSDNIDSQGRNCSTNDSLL
Sequence of Dopamine D1 (P21728 whole entry): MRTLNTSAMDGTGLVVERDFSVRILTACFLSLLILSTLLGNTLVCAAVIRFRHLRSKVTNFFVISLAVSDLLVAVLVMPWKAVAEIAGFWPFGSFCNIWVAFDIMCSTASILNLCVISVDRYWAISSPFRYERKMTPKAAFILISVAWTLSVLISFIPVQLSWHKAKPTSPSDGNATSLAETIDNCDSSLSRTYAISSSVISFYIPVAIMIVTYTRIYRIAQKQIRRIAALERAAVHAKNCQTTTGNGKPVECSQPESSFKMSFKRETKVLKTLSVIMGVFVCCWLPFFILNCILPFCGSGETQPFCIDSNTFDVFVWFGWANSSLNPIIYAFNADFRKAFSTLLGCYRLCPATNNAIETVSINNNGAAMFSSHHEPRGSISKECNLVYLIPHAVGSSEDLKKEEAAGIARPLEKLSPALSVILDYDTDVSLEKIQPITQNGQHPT
Sequence of Cannabinoid CB2 (P34972 whole entry): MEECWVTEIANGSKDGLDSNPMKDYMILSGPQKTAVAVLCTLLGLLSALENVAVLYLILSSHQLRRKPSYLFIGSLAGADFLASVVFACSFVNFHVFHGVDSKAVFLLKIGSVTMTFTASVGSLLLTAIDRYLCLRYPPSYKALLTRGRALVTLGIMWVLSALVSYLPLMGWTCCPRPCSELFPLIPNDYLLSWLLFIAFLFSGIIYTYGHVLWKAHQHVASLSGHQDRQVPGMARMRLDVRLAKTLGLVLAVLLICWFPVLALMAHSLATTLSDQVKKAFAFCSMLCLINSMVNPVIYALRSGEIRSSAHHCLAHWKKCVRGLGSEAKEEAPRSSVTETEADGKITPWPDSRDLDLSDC
Sequence of hERG potassium channel (Q12809 whole entry): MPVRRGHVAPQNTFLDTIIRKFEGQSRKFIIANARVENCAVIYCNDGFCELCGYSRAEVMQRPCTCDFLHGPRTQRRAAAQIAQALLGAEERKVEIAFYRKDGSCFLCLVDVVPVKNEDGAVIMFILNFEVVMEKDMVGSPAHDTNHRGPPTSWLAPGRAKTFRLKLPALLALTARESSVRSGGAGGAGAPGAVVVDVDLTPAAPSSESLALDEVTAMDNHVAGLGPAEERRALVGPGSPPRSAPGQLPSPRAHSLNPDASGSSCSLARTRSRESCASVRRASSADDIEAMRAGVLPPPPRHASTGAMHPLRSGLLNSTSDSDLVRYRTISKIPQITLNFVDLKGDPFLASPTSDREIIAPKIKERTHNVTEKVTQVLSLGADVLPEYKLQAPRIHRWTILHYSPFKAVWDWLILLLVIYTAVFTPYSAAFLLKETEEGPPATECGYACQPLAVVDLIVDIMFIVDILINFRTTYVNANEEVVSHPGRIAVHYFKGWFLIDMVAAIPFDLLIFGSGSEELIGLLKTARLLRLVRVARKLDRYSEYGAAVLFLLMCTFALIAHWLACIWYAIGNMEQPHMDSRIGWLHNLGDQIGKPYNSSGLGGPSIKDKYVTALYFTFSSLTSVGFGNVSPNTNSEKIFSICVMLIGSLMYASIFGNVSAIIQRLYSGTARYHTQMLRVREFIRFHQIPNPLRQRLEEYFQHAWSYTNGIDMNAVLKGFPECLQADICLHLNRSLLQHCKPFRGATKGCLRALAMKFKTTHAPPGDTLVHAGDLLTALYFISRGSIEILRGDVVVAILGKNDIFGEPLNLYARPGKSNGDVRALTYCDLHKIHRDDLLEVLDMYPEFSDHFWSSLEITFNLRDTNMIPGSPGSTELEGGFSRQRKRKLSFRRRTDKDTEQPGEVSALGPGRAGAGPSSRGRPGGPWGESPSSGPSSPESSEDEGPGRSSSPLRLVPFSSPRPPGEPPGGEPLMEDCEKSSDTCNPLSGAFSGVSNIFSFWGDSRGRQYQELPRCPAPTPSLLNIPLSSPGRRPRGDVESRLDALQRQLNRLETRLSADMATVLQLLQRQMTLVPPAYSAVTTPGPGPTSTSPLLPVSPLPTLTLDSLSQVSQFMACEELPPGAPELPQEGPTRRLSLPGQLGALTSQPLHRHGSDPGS
Sequence of Serotonin Transporter SET (P31645 whole entry): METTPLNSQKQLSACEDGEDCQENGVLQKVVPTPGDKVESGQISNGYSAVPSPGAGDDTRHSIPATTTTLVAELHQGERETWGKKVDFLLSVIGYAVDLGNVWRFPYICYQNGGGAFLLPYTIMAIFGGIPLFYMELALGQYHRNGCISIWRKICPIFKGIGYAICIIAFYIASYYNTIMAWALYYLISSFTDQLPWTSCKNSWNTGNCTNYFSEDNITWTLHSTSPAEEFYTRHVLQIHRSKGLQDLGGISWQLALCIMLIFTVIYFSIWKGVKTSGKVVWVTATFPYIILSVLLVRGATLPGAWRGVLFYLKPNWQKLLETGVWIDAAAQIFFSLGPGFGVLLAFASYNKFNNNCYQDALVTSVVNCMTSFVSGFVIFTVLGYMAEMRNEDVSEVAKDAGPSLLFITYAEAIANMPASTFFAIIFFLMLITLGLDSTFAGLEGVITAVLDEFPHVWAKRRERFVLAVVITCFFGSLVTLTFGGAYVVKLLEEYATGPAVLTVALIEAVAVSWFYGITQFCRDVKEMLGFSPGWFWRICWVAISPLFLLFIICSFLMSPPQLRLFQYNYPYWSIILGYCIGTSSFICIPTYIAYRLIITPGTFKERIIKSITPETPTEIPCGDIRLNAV
Sequence of Monoamine oxidase MAO-A (P21397 whole entry): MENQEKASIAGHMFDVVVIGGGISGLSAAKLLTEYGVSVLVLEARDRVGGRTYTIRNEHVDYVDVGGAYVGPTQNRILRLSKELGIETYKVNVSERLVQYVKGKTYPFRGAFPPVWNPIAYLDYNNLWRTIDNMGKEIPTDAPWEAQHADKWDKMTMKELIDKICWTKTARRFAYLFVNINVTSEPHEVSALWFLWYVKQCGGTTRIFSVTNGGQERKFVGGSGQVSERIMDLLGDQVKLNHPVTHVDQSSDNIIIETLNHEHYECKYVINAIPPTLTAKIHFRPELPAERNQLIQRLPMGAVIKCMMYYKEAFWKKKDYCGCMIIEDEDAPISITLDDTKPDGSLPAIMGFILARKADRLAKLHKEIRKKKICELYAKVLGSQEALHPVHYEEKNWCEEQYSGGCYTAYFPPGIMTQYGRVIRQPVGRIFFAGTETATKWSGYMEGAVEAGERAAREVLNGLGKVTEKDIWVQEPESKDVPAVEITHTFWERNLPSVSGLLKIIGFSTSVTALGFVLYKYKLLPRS

C=CC(=O)N1CCN(c2c(C#N)c(=O)n(-c3c(C)ccnc3C(C)C)c3nc(-c4c(N)c(F)c(F)c(F)c4F)c(Cl)cc23)CC1 [Glecirasib]
IC50 (GDP-bound NRAS WT): > 10000 nM | IC50 [1]: 6.61 nM | IC50 [2]: 14 nM | inhibition at 10 µM (Adrenergic α1A): 22.9% | Mean % activation (Adrenergic α1A; Glecirasib 10 μM): 27.61% | inhibition at 10 µM (Adrenergic β2): 45.3% | Mean % activation (Adrenergic β2; Glecirasib 10 μM): 6.84% | inhibition at 10 µM (Cannabinoid CB2): -3.75% | Mean % activation (Cannabinoid CB2; Glecirasib 10 μM): -2.50% | inhibition at 10 µM (Cholecystokinin CCK1): 44.1% | Mean % activation (Cholecystokinin CCK1; Glecirasib 10 μM): 1.74% | inhibition at 10 µM (Dopamine D1): 4.56% | Mean % activation (Dopamine D1; Glecirasib 10 μM): 1.51% | inhibition at 10 µM (Endothelin ETA): -14.8% | Mean % activation (Endothelin ETA; Glecirasib 10 μM): 1.59% | inhibition at 10 µM (hERG potassium channel): 18.2% | inhibition at 10 µM [3]: 4.04% | inhibition at 10 µM (Cyclooxygenase COX2): 14.7% | inhibition at 10 µM (Phosphodiesterase PDE3A): 12.5% | inhibition at 10 µM (Phosphodiesterase PDE4D2): 10.3% | inhibition at 10 µM (Monoamine oxidase MAO-A): 14.8% | Ames test result [4]: negative | micronucleus assay result (bone marrow): negative | phototoxicity result (skin): No phototoxicity was observed; also recorded: negative | inhibition at 10 µM (Calcium channel Cav1.2): 1.46% | inhibition rate [5]: less than 50%

Reference: article PMC12076188 (Cancer Research Communications, 2025)
